For series [1] the following is noted: cited from earlier work; for formal charge: background, gadolinium chelate before salification.
The next series in a line: Charge. The conditions noted are these: Table I, own compound. In kind it is physicochemical.
Series [2] can be described thus: Osmolality of aqueous solutions. In kind it is physicochemical.
The next series has as its system mice. The series can be described thus: Acute toxicity LD50 i.v. in mice. Type of series: in vivo. The text has this: Some of the available data relative to Gd chelates of this invention are detailed in Example 4, together with a comparison with the known data of the following commercially available products: DOTAREM®, OMNISCAN®, PROHANCE®. The datum relative to Gd-DTPA-bismethylammide, Gd-DTPA-BMA, which is the active ingredient of OMNISCAN®, is also reported, even if there is remarkable difference in the LD50 values. Such a difference is known to be due to the simultaneous presence in OMNISCAN® of Gd-DTPA-BMA 500 mM, and of the complex of the same ligand with sodium and calcium, Na[CaDTPA-BMA], at a 25 mM concentration. Therefore the comparison of this last datum with those available for the compounds of this invention is more significant as far as determination homogeneity is concerned.

Read-outs that look alike come from different tables or passages of the source.

For `CNC(=O)CN(CCN(CCN(CC(=O)[O-])CC(=O)NC)CC(=O)[O-])CC(=O)[O-].[Gd+3]` [GdDTPA-BMA, Gd-DTPA-bismethylamide], the CHARGE result in series [1] (Table I, from the data available on the product brochures) was “non-ionic”.
Turning to `C=C(C(=O)NCCOCCO)N1CCN(CC(=O)[O-])CCN(CC(=O)[O-])CCN(CC(=O)[O-])CC1.[Gd+3]` [Example 2, Gadolinium complex of 10-[2-[[2-(2-hydroxyethoxy)ethyl]amino]-1-(methylene)-2-oxoethyl]-1,4,7,10-tetraazacyclododecan-1,4,7-triacetic acid], the CHARGE result in “Charge” is “non-ionic”. Moreover, in series [2], the OSMOLALITY came to 855 mOsm/kg H2 O. Moreover, the “LD50 (mice) i.v.” value with mice is listed as 37.6 mmol/kg.
Regarding `O=C([O-])CN1CCN(CC(=O)[O-])CCN(CC(=O)O)CCN(CC(=O)[O-])CC1.[Gd+3]` [Gd-DOTA], the formal charge in series [1] is -1.
Consider `CC(C(=O)NC(CCCO)(CCCO)CCCO)N1CCN(CC(=O)[O-])CCN(CC(=O)[O-])CCN(CC(=O)[O-])CC1.[Gd+3]` (stereo not shown) [Example 1, Gadolinium complex of 10-[2-[[1,1-bis(3-hydroxypropyl)-4-hydroxybutyl]amino]-1-methylene-2-oxoethyl]-1,4,7,10-tetraazacyclododecan-1,4,7-triacetic acid], for which, in the series with mice, the “LD50 (mice) i.v.” value is 23.4 mmol/kg.
Consider `O=C([O-])CN(CCN(CC(=O)[O-])CC(=O)O)CCN(CC(=O)[O-])CC(=O)O.[Gd+3]` [Gd-DTPA], for which, in series [1], the formal charge is recorded as -2.

(Values after patent US5622688A, “Macrocyclic chelants, their chelates and uses thereof in the diagnostic field” (Dibra S.p.A., priority 1994, dated 1997).)
